Experimental data from ChEMBL document CHEMBL4725310, “Orally bioavailable HCV NS5A inhibitors of unsymmetrical structural class” (Bioorg Med Chem Lett, 2020).
≈ marks a conversion by molar mass, not a printed value.

Key:
[1] = target: T1, Nonstructural protein 5A (Hepatitis C virus, UniProt Q5L478); test: Inhibition of Hepatitis C virus 1b NS5A; parameters: species or system Hepatitis C virus subtype 1b
T1 sequence (Q5L478 whole entry): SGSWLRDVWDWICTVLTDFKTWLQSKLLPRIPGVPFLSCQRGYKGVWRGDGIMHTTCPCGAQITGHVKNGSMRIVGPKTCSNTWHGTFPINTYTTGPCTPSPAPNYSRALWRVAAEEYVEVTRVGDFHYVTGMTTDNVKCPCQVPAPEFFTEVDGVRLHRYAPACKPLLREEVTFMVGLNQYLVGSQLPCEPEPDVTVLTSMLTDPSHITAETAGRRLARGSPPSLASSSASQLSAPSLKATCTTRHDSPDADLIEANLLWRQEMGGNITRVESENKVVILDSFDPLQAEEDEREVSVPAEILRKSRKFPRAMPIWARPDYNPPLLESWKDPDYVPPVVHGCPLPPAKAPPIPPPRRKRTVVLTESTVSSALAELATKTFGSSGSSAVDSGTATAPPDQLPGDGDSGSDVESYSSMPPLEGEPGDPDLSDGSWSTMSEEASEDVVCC

[2] = Solubility of compound in JP 1st fluid at pH 1.2; format: physicochemical
[3] = target: T1, Nonstructural protein 5A; test: Inhibition of Hepatitis C virus 1a NS5A; parameters: species or system Hepatitis C virus subtype 1a
[4] = Oral bioavailability in Sprague-Dawley rat at 3 mg/kg; format: ADME, organism-based; settings: in vivo
[5] = Apparent permeability of compound in human Caco-2 cells; format: ADME, cell-based
[6] = target: T1, Nonstructural protein 5A; test: Inhibition of Hepatitis C virus 2a NS5A; parameters: species or system Hepatitis C virus subtype 2a
[7] = Inhibition of Hepatitis C virus 1a NS5A Q30K mutant; parameters: species or system Hepatitis C virus subtype 1a
[8] = target: Nonstructural protein 5A (Hepatitis C virus, UniProt Q5L478, Q30E); test: Inhibition of Hepatitis C virus 1a NS5A Q30E mutant; parameters: species or system Hepatitis C virus subtype 1a
[9] = target: T1, Nonstructural protein 5A; test: Inhibition of Hepatitis C virus 1a NS5A Q30R mutant; parameters: species or system Hepatitis C virus subtype 1a
[10] = target: T1, Nonstructural protein 5A; test: Inhibition of Hepatitis C virus 3a NS5A; parameters: species or system Hepatitis C virus subtype 3a
[11] = target: T1, Nonstructural protein 5A; test: Inhibition of Hepatitis C virus 1a H77 NS5A; parameters: species or system Hepatitis C virus subtype 1a

Row | Structure (SMILES) | EC50 [1] [nM] | solubility [2] [µM] | EC50 [3] [nM] | bioavailability [4] [%] | Papp [5] [×10⁻⁶ cm/s] | EC50 [6] [nM] | EC50 [7] [nM] | EC50 [8] [nM] | EC50 [9] [nM] | EC50 [10] [nM] | EC50 [11] [nM]
1 | CC(C)(C)C#CCOC(=O)N[C@@H]1CCN(C(=O)N[C@@H](C(=O)N2CCC[C@H]2c2nc(-c3ccc([C@H]4CC[C@H](NC(=O)c5cnccn5)CC4)cc3)c[nH]2)c2ccccc2)C1 | < 0.01 | 142 (≈ 114 µg/mL) | 0.13 | 5.3 | 1.1 |  |  |  |  |  | 
2 | CC(C)(C)C#CCOC(=O)N[C@@H]1CCN(C(=O)N[C@@H](C(=O)N2CCC[C@H]2c2nc(-c3ccc([C@H]4CC[C@H](NC(=O)c5cnc(CO)cn5)CC4)cc3)c[nH]2)c2ccccc2)C1 | 0.013 | 132 (≈ 110 µg/mL) | 0.059 | 32 | 1 | < 0.01 | 17 | 15 | 0.18 | < 0.01 | 
3 | COC1CCC(C(=O)N[C@H]2CC[C@H](c3ccc(-c4c[nH]c([C@@H]5CCCN5C(=O)[C@H](NC(=O)N5CC[C@@H](NC(=O)OCC6CCCCC6)C5)c5ccccc5)n4)cc3)CC2)CC1 (stereo not given in full) | 0.016 | 108 (≈ 90.3 µg/mL) | 0.039 |  | 0.23 |  |  |  |  |  | 
4 | CCCCCOC(=O)N[C@@H]1CCN(C(=O)N[C@@H](C(=O)N2CCC[C@H]2c2nc(-c3ccc([C@H]4CC[C@H](NC(=O)c5cnccn5)CC4)cc3)c[nH]2)c2ccccc2)C1 | 0.0056 | 197 (≈ 153 µg/mL) | 0.97 | 11 | 3 |  |  |  |  |  | 
5 | COC1CCC(C(=O)N[C@H]2CC[C@H](c3ccc(-c4c[nH]c([C@@H]5CCCN5C(=O)[C@H](NC(=O)N5CC[C@@H](NC(=O)OCc6ccccc6)C5)c5ccccc5)n4)cc3)CC2)CC1 (stereo not given in full) | 0.019 | 193 (≈ 160 µg/mL) | 0.17 | 1.4 | < 0.1 |  |  |  |  |  | 
6 | CC(C)C#CCOC(=O)N[C@@H]1CCN(C(=O)N[C@@H](C(=O)N2CCC[C@H]2c2nc(-c3ccc([C@H]4CC[C@H](NC(=O)c5cnc(CO)cn5)CC4)cc3)c[nH]2)c2ccccc2)C1 | 0.017 | 190 (≈ 155 µg/mL) | 0.12 | 18 | 1.4 |  |  |  |  |  | 
7 | CCCC#CCOC(=O)N[C@@H]1CCN(C(=O)N[C@@H](C(=O)N2CCC[C@H]2c2nc(-c3ccc([C@H]4CC[C@H](NC(=O)c5cnccn5)CC4)cc3)c[nH]2)c2ccccc2)C1 | 0.013 | 135 (≈ 106 µg/mL) | 0.27 |  | 1.7 |  |  |  |  |  | 
8 | CC#CCCOC(=O)N[C@@H]1CCN(C(=O)N[C@@H](C(=O)N2CCC[C@H]2c2nc(-c3ccc([C@H]4CC[C@H](NC(=O)c5cnccn5)CC4)cc3)c[nH]2)c2ccccc2)C1 | < 0.01 | 352 (≈ 272 µg/mL) | 3.4 |  | 2.1 |  |  |  |  |  | 
9 | CC(C)C#CCOC(=O)N[C@@H]1CCN(C(=O)N[C@@H](C(=O)N2CCC[C@H]2c2nc(-c3ccc([C@H]4CC[C@H](NC(=O)c5cnccn5)CC4)cc3)c[nH]2)c2ccccc2)C1 | < 0.01 | 246 (≈ 193 µg/mL) | 0.18 | 10 | 1.6 |  |  |  |  |  | 
10 | CC#CCOC(=O)N[C@@H]1CCN(C(=O)N[C@@H](C(=O)N2CCC[C@H]2c2nc(-c3ccc([C@H]4CC[C@H](NC(=O)c5cnccn5)CC4)cc3)c[nH]2)c2ccccc2)C1 | 0.028 | 462 (≈ 350 µg/mL) | 2.1 |  | 2.1 |  |  |  |  |  | 
11 | O=C(N[C@@H]1CCN(C(=O)N[C@@H](C(=O)N2CCC[C@H]2c2nc(-c3ccc([C@H]4CC[C@H](NC(=O)c5cnccn5)CC4)cc3)c[nH]2)c2ccccc2)C1)OCC1CCCCC1 | 0.0065 | 76 (≈ 61 µg/mL) | 0.35 | 4.9 | 0.85 |  |  |  |  |  | 
12 | CCC#CCOC(=O)N[C@@H]1CCN(C(=O)N[C@@H](C(=O)N2CCC[C@H]2c2nc(-c3ccc([C@H]4CC[C@H](NC(=O)c5cnccn5)CC4)cc3)c[nH]2)c2ccccc2)C1 | 0.018 | 336 (≈ 259 µg/mL) | 0.39 |  | 3.1 |  |  |  |  |  | 
13 | COC(=O)N[C@H](C(=O)N1CCC[C@H]1c1ncc(-c2ccc(-c3ccc(-c4cnc([C@@H]5CCCN5C(=O)[C@@H](NC(=O)OC)C(C)C)[nH]4)cc3)cc2)[nH]1)C(C)C [DACLATASVIR] |  |  |  |  |  | 0.071 | 1230 | 1260 | 61 | 0.146 | 0.05
14 | COC1CCN(C(=O)N[C@H]2CC[C@H](c3ccc(-c4c[nH]c([C@@H]5CCCN5C(=O)[C@H](NC(=O)N5CC[C@@H](NC(=O)OCc6ccccc6)C5)c5ccccc5)n4)cc3)CC2)CC1 | 0.041 | 222 (≈ 184 µg/mL) | 0.15 |  | < 0.1 |  |  |  |  |  | 
